Source: patent US8178135B2, “Aqueous solution of conophylline and/or conophyllidine” (Keio University, priority 2006, dated 2012)
Where two headings read alike, the source gives them in different places.

How the values were obtained:
[1] = Crude extract II absorption test in GK rats; type: in vivo, rat; settings: Crude extract II 4.3 or 13 mg/kg, 1.5-24 h
Procedure: Sixteen 10-week old GK rats were divided into four groups (n=4 per group). Two groups (the fasted groups) were fasted for 16 hours, and the remaining two groups (the fed groups) were allowed ad libitum access to chow and water. The fed groups received Crude extract II (containing Tween 80) at 4.3 mg/kg or 13 mg/kg. Blood was taken at 1.5, 3, 6, 12, and 24 hours post administration and plasma conophylline concentration was measured. Likewise, the fasted groups also received Crude extract II and plasma conophylline concentration was measured.

[2] = Concentration dissolved after neutralization with pectin added (partially purified by fractionation); type: physicochemical; settings: for concentration in solution: Control: filled up only with distilled water, not neutralized
Procedure: 10 mg of the dried product obtained in Example 5 was dissolved in 5 ml of 0.1 N hydrochloric acid. This solution was dispensed in 0.5 ml aliquots into test tubes. Then, 10 μl or 100 μl of a 0.25% aqueous solution of pectin (Genue pectin type YM-150-LJ) was added and filled up to a total volume of 2 ml with distilled water. Meanwhile, only distilled water was added to some of the test tubes in a total volume of 2 ml.
Subsequently, the solution, after being adjusted to pH 6.0 with sodium carbonate aqueous solution, was filled up to a total volume of 2.5 ml and was centrifuged at 5,000×g for 10 min. The supernatant was recovered and the concentrations of conophylline and conophyllidine were measured. Meanwhile, the concentrations of conophylline and conophyllidine in the solutions, which was made by filled up to a total volume of 2.5 ml only with distilled water, were also measured as the control.

[3] = Blood concentrations after oral administration of Crude extract I to rats; type: in vivo, rat
Procedure: One drop of Tween 80 was added to the crude extract (0.05 g) obtained in Example 1, which was suspended in 5-ml of water for injection. This suspension was administered to 5-week old rats (Crj:CD(SD) IGS, SPF, male) using a sonde by forced oral administration at a dose of 5 ml/kg body weight (n=2). Blood was taken from the orbital venous plexus of each rat at 0.5, 1, 2, 4, 8, 24 hours post administration and serum was recovered by centrifugation. Then, the concentrations of conophylline and conophyllidine in the blood were measured (Table 7) by the same method as in Example 8. As the control, water for injection containing one drop of Tween80 was administered orally at a dose of 5 ml/kg body weight (n=2) and the blood concentrations were measured in the same manner.

[4] = Amounts in lysate, acid extract and fractions after neutralization to pH 6.0, centrifugation and ultrafiltration (HPLC); type: physicochemical; settings: for amount in Aqueous extract: clarified 0.1 N hydrochloric acid extract; for amount in Lysate: distilled water, 50° C. 30 min, centrifuged supernatant; for amount in Centrifuged supernatant: extract adjusted to pH 6.0, 1,500×g 5 min; for amount in Centrifuged precipitate: extract adjusted to pH 6.0, precipitate dissolved in equal volume of 50% ethanol; for amount in UF filtrate: pH 6.0, passed ultrafiltration membrane; for amount in UF filtrate / amount in UF debris: cut-off 50,000; for amount in UF debris: pH 6.0, retained on ultrafiltration membrane
Procedure: Conophylline and conophyllidine were analyzed by reversed phase HPLC in a high pressure gradient mode using a YMC-Pack Pro C18 RS column (4.6 mm×250 mm; manufactured by YMC Co., Ltd.). The mobile phase consisted of 1% by volume acetic acid as solvent A and acetonitrile as solvent B. The gradient program was set to start with 10% B at a flow rate of 1 ml/min, and the portion of B was increased linearly to 55% over 25 min. The column temperature was 40° C. and UV absorption was monitored at the wavelength of 335 nm. The reference solutions of conophylline and conophyllidine were prepared immediately before measurement and their concentrations were calculated from the absorbance at 335 nm of the solutions prepared.
200 ml of 0.1 N hydrochloric acid was added to 4 g of pulverized product of the dried leaves obtained by the same method as in Example 2, which was then extracted at 50° C. for 30 min. After the debris was removed by paper filtration, the extract was ultrafiltrated with pencil-type module SLP-0053 manufactured by Asahi Kasei Corporation (molecular weight cut-off 10,000) and 165 ml of filtrate was recovered. The pH of the filtrate was adjusted by gradually adding sodium carbonate aqueous solution and the precipitate formed was recovered by centrifugation. The precipitate was then vacuum-evaporated to yield 70 mg of dried product. This dried product contained 9.8 μg of conophylline and 13.3 μg of conophyllidine per mg
The extract was prepared and clarified by removing debris by paper filtration in the same method as in Example 5. Then 100 ml of the clarified extract was adjusted to pH 6.0 with sodium hydroxide aqueous solution. This solution was centrifuged (1,500×g, 5 min) to separate into a supernatant (centrifuged supernatant) and precipitate (centrifuged precipitate). Next, the precipitate was dissolved in an equal volume of 50% ethanol, and the amounts of the active ingredients (conophylline and conophyllidine) in the clarified extract, the centrifuged supernatant, and the centrifuged precipitate were measured by HPLC. Further, the amounts of the active ingredient in the supernatant (lysate) obtained by adding 200 ml of distilled water to 4 g of the pulverized product of the dried leaves of Tabernaemontana divaricata and heating at 50° C. for 30 min, followed by centrifugation at 1,500×g for 5 min were also measured by HPLC.
Further, a sodium hydroxide aqueous solution was added to 1 ml of the above-described clarified extract to adjust pH to 6.0. This extract was treated with an ultrafiltration membrane USY-5 (molecular weight cut-off: 50,000), manufactured by Advantech Co., Ltd. and the filtrate which had passed through the membrane was recovered (UF filtrate). At the same time, the remaining component on the membrane was dissolved and recovered using 1 ml of 50% ethanol (UF debris), and the amounts of the active ingredients in the UF filtrate and UF debris were measured by HPLC (Table 5). As a result, no amount of conophylline or conophyllidine was not detected in the filtrate at all; almost all was present in the fraction which had not permeated through the ultrafiltration membrane.

[5] = test system: model animals of neonatal diabetes; settings: intraperitoneally administered; cited from earlier work
[6] = Storing stability of water-soluble composition extracted with citric acid; type: physicochemical; settings: dried composition
Procedure: 0.1 M citric acid was added to the pulverized product of the dried leaves obtained by the same method as in Example 2, and stirred at 60° C. After insoluble matter was filtered off, the solution was neutralized to pH 6.0 with 0.1 N sodium hydroxide, dispensed in 1 ml aliquots into test tubes, and concentrated to dryness by centrifugation.
First, 1 ml of 50% ethanol was added to one of the test tubes to dissolve solid content. The solution was filtered through a 0.2 μm membrane filter, and then conophylline and conophyllidine were analyzed by HPLC.
Next, the remaining test tubes were divided into five groups, each of which being stored at −30° C. (shielded from light), 4° C. (shielded from light), 4° C. (not shielded from light), 30° C. (shielded from light), and 50° C. (shielded from light). After a lapse of a certain period of time, the composition was dissolved by addition of 50% ethanol, filtered, and analyzed by HPLC.

[7] = male, Crj:CD(SD) IGS, rat, in vivo, po, blood concentration

CC[C@@]12CC(C(=O)OC)=C3Nc4cc5c(cc4[C@@]34CCN(C[C@H]3O[C@H]31)[C@@H]24)[C@@H]1[C@H](O5)[C@@H](O)[C@@]2(CC)CC(C(=O)OC)=C3Nc4c(cc(O)c(OC)c4OC)[C@@]34CCN1[C@@H]24 [Conophylline, conophylline]
blood (plasma) conophylline concentration, fasted vs fed groups [1]: slightly higher in the fasted groups, but no significant difference
concentration in solution [2]: 3700 ng/mL
concentration in supernatant after neutralization ([2]; pH 6.0, Pectin 10 μg/ml): 2100 ng/mL
concentration in supernatant after neutralization ([2]; pH 6.0, Pectin 100 μg/ml): 2600 ng/mL
concentration in supernatant after neutralization ([2]; pH 6.0, pectin 0 μg/ml): 1500 ng/mL
blood concentration ([3]; male, Crj:CD(SD) IGS, rat, in vivo, po, 0.5 h): 398 ng/mL
blood concentration ([3]; male, Crj:CD(SD) IGS, rat, in vivo, po, 1 h): 472 ng/mL
blood concentration ([3]; male, Crj:CD(SD) IGS, rat, in vivo, po, 24 h): 108 ng/mL
concentration at 0.5 h [3, 7]: 332 ng/mL
concentration at 1 h [3, 7]: 270 ng/mL
concentration at 24 h [3, 7]: 90 ng/mL
amount in Aqueous extract [4]: 2.62 µg/mL
amount in Lysate [4]: 0.04 µg/mL
amount in Centrifuged supernatant [4]: 2.22 µg/mL
amount in Centrifuged precipitate [4]: 0.48 µg/mL
amount in UF filtrate [4]: 0.00 µg/mL
amount in UF debris [4]: 2.39 µg/mL
blood glucose levels [5]: significantly suppressing increased blood glucose levels

CC[C@@]12C=CCN3CC[C@]4(C(=C(C(=O)OC)C1)Nc1cc5c(cc14)[C@H]1[C@@H](O5)[C@H](O)[C@]4(CC)CC(C(=O)OC)=C5Nc6c(cc(O)c(OC)c6OC)[C@@]56CCN1[C@H]46)[C@H]32 (stereo in doubt) [Conophyllidine, conophyllidine]
concentration in solution [2]: 4600 ng/mL
concentration in supernatant after neutralization ([2]; pH 6.0, Pectin 10 μg/ml): 2200 ng/mL
concentration in supernatant after neutralization ([2]; pH 6.0, Pectin 100 μg/ml): 3000 ng/mL
concentration in supernatant after neutralization ([2]; pH 6.0, pectin 0 μg/ml): 1500 ng/mL
storing stability ([6]; 4° C., not shielded from light): gradually decreased (degraded)
storing stability ([6]; −30, 4, 30, 50° C., shielded from light): very stable
blood concentration ([3]; Crude extract I oral, rats (animals 3, 4), 0.5 h): 65 ng/mL
blood concentration ([3]; Crude extract I oral, rats (animals 3, 4), 1 h): 62 ng/mL
blood concentration ([3]; Crude extract I oral, rats (animals 3, 4), 2 h): 32 ng/mL
blood concentration ([3]; Crude extract I oral, rats (animals 3, 4), 4 h): 25 ng/mL
blood concentration ([3]; Crude extract I oral, rats (animals 3, 4), 8 h): 13 ng/mL
blood concentration ([3]; Crude extract I oral, rats (animals 3, 4), 24 h): 9 ng/mL
concentration at 0.5 h ([3]; male, Crj:CD(SD) IGS, rat, in vivo, po, 0.05 g/kg, Crude extract I oral, rats (animals 3, 4), 0.5 h, read-out: blood concentration): 54 ng/mL
concentration at 1 h ([3]; male, Crj:CD(SD) IGS, rat, in vivo, po, 0.05 g/kg, Crude extract I oral, rats (animals 3, 4), 1 h, read-out: blood concentration): 61 ng/mL
concentration at 2 h ([3]; male, Crj:CD(SD) IGS, rat, in vivo, po, 0.05 g/kg, Crude extract I oral, rats (animals 3, 4), 2 h): 40 ng/mL
concentration at 4 h ([3]; male, Crj:CD(SD) IGS, rat, in vivo, po, 0.05 g/kg, Crude extract I oral, rats (animals 3, 4), 4 h): 36 ng/mL
concentration at 8 h ([3]; male, Crj:CD(SD) IGS, rat, in vivo, po, 0.05 g/kg, Crude extract I oral, rats (animals 3, 4), 8 h): 24 ng/mL
concentration at 24 h ([3]; male, Crj:CD(SD) IGS, rat, in vivo, po, 0.05 g/kg, Crude extract I oral, rats (animals 3, 4), 24 h, read-out: blood concentration): 13 ng/mL
amount in Aqueous extract [4]: 2.01 µg/mL
amount in Lysate [4]: 0.02 µg/mL
amount in Centrifuged supernatant [4]: 1.41 µg/mL
amount in Centrifuged precipitate [4]: 0.30 µg/mL
amount in UF filtrate [4]: 0.00 µg/mL
amount in UF debris [4]: 2.19 µg/mL
